Test results as given in patent US10689377B2 (Mirati Therapeutics, Inc., priority 2017, dated 2020).

Target: KRas G12C (Homo sapiens, UniProt P01116, G12C)
Assay: Cellular inhibition of KRas G12C measured by Phospho-ERK in NCI-H358 cells
Type: cell-based
Conditions: pERK(Thr202/Tyr204) normalized with GAPDH, NCI-H358 cells, 3 hours; read-out: IC50
How it was run: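 NCI-H358 cells treated 3 h with compound (0.5% DMSO final), then fixed and methanol-permeabilised. In-cell immunofluorescence measured pERK(Thr202/Tyr204) normalised to GAPDH as percent of DMSO control. IC50 from a 4-parameter dose-response fit.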

Chain of KRas G12C (P01116 1-188 isoform P01116-2 G12C): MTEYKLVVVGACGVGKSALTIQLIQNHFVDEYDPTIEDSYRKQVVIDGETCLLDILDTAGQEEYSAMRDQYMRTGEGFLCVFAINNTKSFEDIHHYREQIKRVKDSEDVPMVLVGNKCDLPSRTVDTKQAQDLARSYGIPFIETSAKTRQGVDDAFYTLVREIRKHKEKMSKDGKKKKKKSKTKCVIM

Compound	IC50
C=CC(=O)N1CCN(c2nc(OCC(C)(C)N(C)C)nc3c2CCN(c2cccc4ccccc24)C3)CC1CC#N (centres unmarked) [Example 269, 2-(1-acryloyl-4-(2-(2-(dimethylamino)-2-methylpropoxy)-7-(naphthalen-1-yl)-5,6,7,8-tetrahydropyrido[3,4-d]pyrimidin-4-yl)piperazin-2-yl)acetonitrile]	0.1 to 1000 nM
C=CC(=O)N1CCN(c2nc(OC[C@H]3CN(C)CCO3)nc3c2CCN(c2cccc4ccccc24)C3)CC1CC#N (stereo partly drawn) [Example 270, 2-(1-acryloyl-4-(2-(((R)-4-methylmorpholin-2-yl)methoxy)-7-(naphthalen-1-yl)-5,6,7,8-tetrahydropyrido[3,4-d]pyrimidin-4-yl)piperazin-2-yl)acetonitrile]	0.1 to 1000 nM
C=CC(=O)N1CCN(c2nc(OC[C@@H]3CN(C)CCO3)nc3c2CCN(c2cccc4ccccc24)C3)CC1CC#N (stereo partly drawn) [Example 271, 2-(1-acryloyl-4-(2-(((S)-4-methylmorpholin-2-yl)methoxy)-7-(naphthalen-1-yl)-5,6,7,8-tetrahydropyrido[3,4-d]pyrimidin-4-yl)piperazin-2-yl)acetonitrile]	0.1 to 1000 nM
C=CC(=O)N1CCN(c2nc(OC[C@@H]3COCCN3C)nc3c2CCN(c2cccc4ccccc24)C3)CC1CC#N (stereo partly drawn) [Example 272, 2-(1-acryloyl-4-(2-(((S)-4-methylmorpholin-3-yl)methoxy)-7-(naphthalen-1-yl)-5,6,7,8-tetrahydropyrido[3,4-d]pyrimidin-4-yl)piperazin-2-yl)acetonitrile]	0.1 to 1000 nM
C=CC(=O)N1CCN(c2nc(OC[C@H]3COCCN3C)nc3c2CCN(c2cccc4ccccc24)C3)CC1CC#N (stereo partly drawn) [Example 273, 2-(1-acryloyl-4-(2-(((R)-4-methylmorpholin-3-yl)methoxy)-7-(naphthalen-1-yl)-5,6,7,8-tetrahydropyrido[3,4-d]pyrimidin-4-yl)piperazin-2-yl)acetonitrile]	> 1000 nM
C=CC(=O)N1CCN(c2nc(OC[C@H]3CCCN3C)nc3c2CCN(c2cccc(F)c2C(F)(F)F)C3)C[C@@H]1CC#N [Example 274, 2-((S)-1-acryloyl-4-(7-(3-fluoro-2-(trifluoromethyl)phenyl)-2-(((R)-1-methylpyrrolidin-2-yl)methoxy)-5,6,7,8-tetrahydropyrido[3,4-d]pyrimidin-4-yl)piperazin-2-yl)acetonitrile]	0.1 to 1000 nM
C=CC(=O)N1CCN(c2nc(OC[C@@H]3CCCN3C)nc3c2CCN(c2c(F)cccc2C(F)(F)F)C3)CC1CC#N (some centres unmarked) [Example 275]	0.1 to 1000 nM
C=CC(=O)N1CCN(c2nc(OC[C@@H]3CCCN3C)nc3c2CCN(c2ccc(F)cc2C(F)(F)F)C3)CC1CC#N (some centres unmarked) [Example 276]	0.1 to 1000 nM
C=CC(=O)N1CCN(c2nc(OC[C@@H]3CCCN3C)nc3c2CCN(c2cccc(Cl)c2C(F)(F)F)C3)CC1CC#N (stereo partly drawn) [Example 277, 2-(1-acryloyl-4-(7-(3-chloro-2-(trifluoromethyl)phenyl)-2-(((S)-1-methylpyrrolidin-2-yl)methoxy)-5,6,7,8-tetrahydropyrido [3,4-d]pyrimidin-4-yl)piperazin-2-yl)acetonitrile]	0.1 to 1000 nM
C=CC(=O)N1CCN(c2nc(OC[C@@H]3CCCN3C)nc3c2CCN(c2ccnc4ccccc24)C3)CC1CC#N (stereo partly drawn) [Example 278, 2-(1-acryloyl-4-(2-(((S)-1-methylpyrrolidin-2-yl)methoxy)-7-(quinolin-4-yl)-5,6,7,8-tetrahydropyrido[3,4-d]pyrimidin-4-yl)piperazin-2-yl)acetonitrile]	0.1 to 1000 nM
C=CC(=O)N1CCN(c2nc(OCCN(C)C)nc3c2CCN(c2ccccc2C(F)(F)F)C3)CC1CC#N (centres unmarked) [Example 279, 2-(1-acryloyl-4-(2-(2-(dimethylamino)ethoxy)-7-(2-(trifluoromethyl)phenyl)-5,6,7,8-tetrahydropyrido[3,4-d]pyrimidin-4-yl)piperazin-2-yl)acetonitrile]	0.1 to 1000 nM
C=CC(=O)N1CCN(c2nc(OCCCN3C[C@H]4C[C@@H]3CO4)nc3c2CCN(c2ccccc2C(F)(F)F)C3)CC1CC#N (stereo partly drawn) [Example 280, 2-(4-(2-(3-((1R,4R)-2-oxa-5-azabicyclo[2.2.1]heptan-5-yl)propoxy)-7-(2-(trifluoromethyl)phenyl)-5,6,7,8-tetrahydropyrido [3,4-d]pyrimidin-4-yl)-1-acryloylpiperazin-2-yl)acetonitrile]	0.1 to 1000 nM
C=CC(=O)N1CCN(c2nc(OC[C@@H]3CCN(C)C3)nc3c2CCN(c2ccccc2C(F)(F)F)C3)CC1CC#N (stereo partly drawn) [Example 281, 2-(1-acryloyl-4-(2-(((R)-1-methylpyrrolidin-3-yl)methoxy)-7-(2-(trifluoromethyl)phenyl)-5,6,7,8-tetrahydropyrido[3,4-d]pyrimidin-4-yl)piperazin-2-yl)acetonitrile]	0.1 to 1000 nM
CC(C)=CC(=O)N1CCN(c2nc(OC[C@@H]3CCCN3C)nc3c2CCN(c2cccc4ccccc24)C3)CC1CC#N (stereo partly drawn) [Example 282, 2-(1-(3-methylbut-2-enoyl)-4-(2-(((S)-1-methylpyrrolidin-2-yl)methoxy)-7-(naphthalen-1-yl)-5,6,7,8-tetrahydropyrido[3,4-d]pyrimidin-4-yl)piperazin-2-yl)acetonitrile]	> 1000 nM
C=CC(=O)N1CCN(c2nc(OC[C@H]3CCCN3C)nc3c2CCN(c2ccccc2C(F)(F)F)C3)CC1CC#N (stereo partly drawn) [Example 283, 2-(1-acryloyl-4-(2-(((R)-1-methylpyrrolidin-2-yl)methoxy)-7-(2-(trifluoromethyl)phenyl)-5,6,7,8-tetrahydropyrido[3,4-d]pyrimidin-4-yl)piperazin-2-yl)acetonitrile]	0.1 to 1000 nM
C=CC(=O)N1CCN(c2nc(OCCN(CC)CC)nc3c2CCN(c2ccccc2C(F)(F)F)C3)CC1CC#N (centres unmarked) [Example 284, 2-(1-acryloyl-4-(2-(2-(diethylamino)ethoxy)-7-(2-(trifluoromethyl)phenyl)-5,6,7,8-tetrahydropyrido[3,4-d]pyrimidin-4-yl)piperazin-2-yl)acetonitrile]	0.1 to 1000 nM
C=CC(=O)N1CCN(c2nc(OC[C@@H]3CCCN3C(C)C)nc3c2CCN(c2cccc4ccccc24)C3)CC1CC#N (stereo partly drawn) [Example 285, 2-[4-[2-[[(2S)-1-isopropylpyrrolidin-2-yl]methoxy]-7-(1-naphthyl)-6,8-dihydro-5H-pyrido[3,4-d]pyrimidin-4-yl]-1-prop-2-enoyl-piperazin-2-yl]acetonitrile]	0.1 to 1000 nM
C=CC(=O)N1CCN(c2nc(OC[C@@H]3CCCN3C)nc3c2CCN(c2cccc4ccc(Cl)cc24)C3)CC1CC#N (stereo partly drawn) [Example 286, 2-(1-acryloyl-4-(7-(7-chloronaphthalen-1-yl)-2-(((S)-1-methylpyrrolidin-2-yl)methoxy)-5,6,7,8-tetrahydropyrido[3,4-d]pyrimidin-4-yl)piperazin-2-yl)acetonitrile]	0.1 to 1000 nM
C=CC(=O)N1CCN(c2nc(OC[C@@H]3CCCN3C)nc3c2CCN(c2cccc4c(F)cccc24)C3)CC1CC#N (stereo partly drawn) [Example 287, 2-[4-[7-(5-fluoro-1-naphthyl)-2-[[(2S)-1-methylpyrrolidin-2-yl]methoxy]-6,8-dihydro-5H-pyrido[3,4-d]pyrimidin-4-yl]-1-prop-2-enoyl-piperazin-2-yl]acetonitrile]	0.1 to 1000 nM
C=CC(=O)N1CCN(c2nc(OC[C@@H]3CCCN3C)nc3c2CCN(c2cccc4ccc(OC)cc24)C3)CC1CC#N (stereo partly drawn) [Example 288, 2-[4-[7-(7-methoxy-1-naphthyl)-2-[[(2S)-1-methylpyrrolidin-2-yl]methoxy]-6,8-dihydro-5H-pyrido[3,4-d]pyrimidin-4-yl]-1-prop-2-enoyl-piperazin-2-yl]acetonitrile]	> 1000 nM
C=CC(=O)N1CCN(c2nc(OC[C@@H]3CCCN3C)nc3c2CCN(c2nccc4ccccc24)C3)CC1CC#N (stereo partly drawn) [Example 289, 2-[4-[7-(1-isoquinolyl)-2-[[(2S)-1-methylpyrrolidin-2-yl]methoxy]-6,8-dihydro-5H-pyrido[3,4-d]pyrimidin-4-yl]-1-prop-2-enoyl-piperazin-2-yl]acetonitrile]	> 1000 nM
C=CC(=O)N1CCN(c2nc(OC[C@@H]3CCCN3C)nc3c2CCN(c2cccc4cc(F)ccc24)C3)CC1CC#N (stereo partly drawn) [Example 290, 2-[4-[7-(6-fluoro-1-naphthyl)-2-[[(2S)-1-methylpyrrolidin-2-yl]methoxy]-6,8-dihydro-5H-pyrido[3,4-d]pyrimidin-4-yl]-1-prop-2-enoyl-piperazin-2-yl]acetonitrile]	0.1 to 1000 nM
C=CC(=O)N1CCN(c2nc(OC[C@@H]3CCCN3C)nc3c2CCN(c2cncc4ccccc24)C3)CC1CC#N (stereo partly drawn) [Example 291, 2-[4-[7-(4-isoquinolyl)-2-[[(2S)-1-methylpyrrolidin-2-yl]methoxy]-6,8-dihydro-5H-pyrido[3,4-d]pyrimidin-4-yl]-1-prop-2-enoyl-piperazin-2-yl]acetonitrile]	0.1 to 1000 nM
C=CC(=O)N1CCN(c2nc(OC[C@@H]3CCCN3C)nc3c2CCN(c2cccc4cnccc24)C3)CC1CC#N (stereo partly drawn) [Example 292, 2-[4-[7-(5-isoquinolyl)-2-[[(2S)-1-methylpyrrolidin-2-yl]methoxy]-6,8-dihydro-5H-pyrido[3,4-d]pyrimidin-4-yl]-1-prop-2-enoyl-piperazin-2-yl]acetonitrile]	> 1000 nM
C/C=C/C(=O)N1CCN(c2nc(OC[C@@H]3CCCN3C)nc3c2CCN(c2cccc4ccccc24)C3)CC1CC#N (stereo partly drawn) [Example 293, 2-[1-[(E)-but-2-enoyl]-4-[2-[[(2S)-1-methylpyrrolidin-2-yl]methoxy]-7-(1-naphthyl)-6,8-dihydro-5H-pyrido[3,4-d]pyrimidin-4-yl]piperazin-2-yl]acetonitrile]	0.1 to 1000 nM
C=CC(=O)N1CCN(c2nc(OC[C@@H]3CCCN3C)nc3c2CCN(c2cccc4ncccc24)C3)CC1CC#N (stereo partly drawn) [Example 294, 2-[4-[2-[[(2S)-1-methylpyrrolidin-2-yl]methoxy]-7-(5-quinolyl)-6,8-dihydro-5H-pyrido[3,4-d]pyrimidin-4-yl]-1-prop-2-enoyl-piperazin-2-yl]acetonitrile]	> 1000 nM
